The values that follow come from US20240228506A1, “RIPK1 INHIBITORS AND METHODS OF USE” (Merck Sharp & Dohme LLC, priority 2021, published 2024).

This assay concerns the target T1, GST-RIPK1 (recombinant GST-RIPK1 kinase domain (residues 1-327)) (Homo sapiens, UniProt Q13546).
T1 construct: recombinant GST-RIPK1 kinase domain (residues 1-327) enzyme; made in house; host or cells: baculovirus-transfected Sf21 insect cells
T1 sequence (Q13546 1-327): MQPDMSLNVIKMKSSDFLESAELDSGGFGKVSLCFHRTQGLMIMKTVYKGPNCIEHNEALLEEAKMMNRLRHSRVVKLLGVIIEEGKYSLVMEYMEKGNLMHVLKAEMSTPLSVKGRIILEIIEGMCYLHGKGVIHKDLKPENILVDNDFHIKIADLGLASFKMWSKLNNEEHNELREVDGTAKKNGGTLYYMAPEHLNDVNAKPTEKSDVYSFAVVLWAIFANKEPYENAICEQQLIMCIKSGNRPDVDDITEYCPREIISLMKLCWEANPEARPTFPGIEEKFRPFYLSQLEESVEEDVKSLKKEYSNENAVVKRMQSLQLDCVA
The assay is described as follows: RIPK1-ADP-Glo enzymatic assay. In kind it is biochemical. To be noted: 25 nM GST-RIPK1, 300 μM ATP, 3 μM dephosphorylated-MBP; 30 minutes pre-incubation, 150 minutes reaction; ten-point titration. The protocol:
The enzymatic activity of RIPK1 is measured using an assay derived from ADP-Glo kit (Promega™), which provides a luminescent-based ADP detection system. Specifically, the ADP generated by RIPK1 kinase is proportionally detected as luminescent signals in a homogenous fashion. In this context, the assessment of the inhibitory effect of small molecules (EC50) is measured by the effectiveness of the compounds to inhibit the ATP to ADP conversion by RIPK1. In this assay, the potency (EC50) of each compound was determined from a ten-point (1:3 serial dilution; top compound concentration of 100000 nM) titration curve using the following outlined procedure. To each well of a white ProxiPlus 384 well-plate, […] of compound (1% DMSO in final assay volume of 3 μL) was dispensed, followed by the addition of 2 μL of 1× assay buffer (25 mM Hepes 7.3, 20 mM MgCl2, 50 mM NaCl, 1 mM DTT, 0.005% Tween20, and 0.02% BSA) containing 37.5 nM of GST-RIPK1 (recombinant GST-RIPK1 kinase domain (residues 1-327) enzyme produced from baculovirus-transfected Sf21 cells: MW=62 kDa). Plates were placed in an ambient temperature humidified chamber for a 30 minutes pre-incubation with compound. Subsequently, each reaction was initiated by the addition of 1 μL 1×assay buffer containing 900 μM ATP and […]. The final reaction in each well of 3 μL consists of 25 nM of GST-RIPK1, 300 μM ATP, and 3 μM dephosphorylated-MBP. Kinase reactions were allowed to proceed for 150 minutes prior to adding ADP-Glo reagents per Promega's outlined kit protocol. Dose-response curves were generated by plotting percent effect (% product conversion; Y-axis) vs. Log10 compound concentrations (X-axis). EC50 values were calculated using a non-linear regression, four-parameters sigmoidal dose-response model.
A general note: ADP-Glo first removes unused ATP, then detects ADP through luciferase.

As to `O=C(N1C[C@@H]2C[C@H]1c1cncc(C#CC3CC3)c1O2)C12CCC(F)(CC1)C2` [Compound 2-115, ((2S,5S)-9-(Cyclopropylethynyl)-2,3-dihydro-2,5-methanopyrido[3,4-f][1,4]oxazepin-4(5H)-yl)(4-fluorobicyclo[2.2.1]heptan-1-yl)methanone], the IC50 worked out at 0.032 µM.

`N#Cc1cncc2c1O[C@H]1C[C@@H]2N(C(=O)C2(F)CCN(c3ccnc(Cl)c3)CC2)C1` [Compound 1-72, (2S,5S)-4-(1-(2-chloropyridin-4-yl)-4-fluoropiperidine-4-carbonyl)-2,3,4,5-tetrahydro-2,5-methanopyrido[3,4-f][1,4]oxazepine-9-carbonitrile]: the IC50 turned out to be 0.035 µM.

`N#Cc1cncc2c1OC[C@H]1CC[C@@H]2N1C(=O)C12CCC(C(F)(F)F)(CC1)C2` [Compound 5-2, (3R,6S)-11-(4-(trifluoromethyl)bicyclo[2.2.1]heptane-1-carbonyl)-3,4,5,6-tetrahydro-2H-3,6-epiminooxocino[3,2-c]pyridine-10-carbonitrile]: the IC50 was 0.114 µM. The result for `N#Cc1cncc2c1O[C@H]1C[C@@H]2N(C(=O)C2(F)CCN(c3ncnc4scnc34)CC2)C1` [Compound 1-57, (2S,5S)-4-(4-fluoro-1-(thiazolo[5,4-d]pyrimidin-7-yl)piperidine-4-carbonyl)-2,3,4,5-tetrahydro-2,5-methanopyrido[3,4-f][1,4]oxazepine-9-carbonitrile] reads 0.035 µM; that for `O=C(N1C[C@@H]2C[C@H]1c1cncc(C#CC3COC3)c1O2)C12CCC(F)(CC1)C2` [Compound 2-119, (4-fluorobicyclo[2.2.1]heptan-1-yl)((2S,5S)-9-(oxetan-3-ylethynyl)-2,3-dihydro-2,5-methanopyrido[3,4-f][1,4]oxazepin-4(5H)-yl)methanone], 0.057 µM; that for `CC(C)(C(=O)N1C[C@@H]2C[C@H]1c1cncc(C#Cc3cnc4cncn4c3)c1O2)C(F)F` [Compound 2-93, 3,3-difluoro-1-((2S,5S)-9-(imidazo[1,5-a]pyrimidin-3-ylethynyl)-2,3-dihydro-2,5-methanopyrido[3,4-f][1,4]oxazepin-4(5H)-yl)-2,2-dimethylpropan-1-one], 0.058 µM. As for `CC1(C(=O)N2C[C@@H]3C[C@H]2c2cncc(C#N)c2O3)CC1` [Compound 1-76, (2S,5S)-4-(1-methylcyclopropane-1-carbonyl)-2,3,4,5-tetrahydro-2,5-methanopyrido[3,4-f][1,4]oxazepine-9-carbonitrile], the IC50 was 0.78 µM. In the case of `CC(C)(C)C(=O)N1C[C@@H]2C[C@H]1c1cncc(C#Cc3cc(C(F)(F)F)ccn3)c1O2` [Compound 2-35, 2,2-dimethyl-1-((2S,5S)-9-((4-(trifluoromethyl)pyridin-2-yl)ethynyl)-2,3-dihydro-2,5-methanopyrido[3,4-f][1,4]oxazepin-4(5H)-yl)propan-1-one], the IC50 stood at 0.176 µM. On to `O=C(N1C[C@@H]2C[C@H]1c1cncc(Cl)c1O2)C12CCC(F)(CC1)C2` [Compound 2-3, ((2S,5S)-9-Chloro-2,3-dihydro-2,5-methanopyrido[3,4-f][1,4]oxazepin-4(5H)-yl)(4-fluorobicyclo[2.2.1]heptan-1-yl)methanone], for which the IC50 came to 0.008 µM. The same measure for `N#Cc1cncc2c1O[C@H]1C[C@@H]2N(C(=O)C2(C(F)(F)F)CCC2)C1` [Compound 1-11, (2S,5S)-4-[1-(trifluoromethyl)cyclobutane-1-carbonyl]-2,3,4,5-tetrahydro-2,5-methanopyrido[3,4-f][1,4]oxazepine-9-carbonitrile]: 0.062 µM; for `CC(C)(C(=O)N1C[C@@H]2C[C@H]1c1cncc(C#Cc3ccc(F)cc3)c1O2)C(F)F` [Compound 2-41, 3,3-difluoro-1-((2S,5S)-9-((4-fluorophenyl)ethynyl)-2,3-dihydro-2,5-methanopyrido[3,4-f][1,4]oxazepin-4(5H)-yl)-2,2-dimethylpropan-1-one]: 0.056 µM.

A word on the IC50: it is the concentration needed to halve the response being measured.
